Assay results taken from patent US5215900A, “Microbial transformation of a substituted pyridinone using streptomyces sp. MA6804” (Merck & Co., Inc., priority 1991, dated 1993).

Target: T1, recombinant HIV reverse transcriptase (HIV RTR) (Human immunodeficiency virus type 1 group M subtype B, UniProt P04585)
T1 construct: recombinant HIV reverse transcriptase (HIV RTR)
Assay: Reverse Transcriptase Assay
Type: biochemical
Procedure: The assay measures the incorporation of tritiated deoxyguanosine monophosphate by recombinant HIV reverse transcriptase (HIV RTR) (or other RT) into acid-precipitable cDNA at the Km values of dGTP and poly r(C).oligo d(G)12-18.
Thirty uL of a reaction mixture containing equal volumes of: 500 mM Tris.HCl (pH 8.2), 300 mM MgCl2, 1200 mM KCl, 10 mM DTT, 400 μg/mL poly r(c).oligo d(G) [prepared by dissolving 1.5 mg (25 U) poly r(C).oligo d(G) in 1.5 ml sterile distilled H2 O and diluting to 400 μg/ml], 0.1 μuCi/μl [^3 H] dGTP, 160 μM dGTP, was added to 10 μl sterile distilled H2 O, 2.5 μl of potential inhibitor. Ten μL of 3.2 nM purified HIV RTR in tubes. The mixture was incubated at 37° C. for 45 minutes.
After incubation was complete, the tubes were cooled in ice for 5 minutes. Ice-cold 13% TCA containing 10 mM NaPPi (200 μl) was added and the mixture incubated on ice for 30 minutes. The precipitated cDNA was removed by filtration using presoaked glass filters [TCA, NaPPi ]. The precipitate was then washed with 1N HCl, 10 mM NaPPi. The filter discs were then counted in a scintillation counter.
Under these conditions [dGTP] and poly r(C).oligo d(G)12-18 each are approximately equal to the appropriate Km value. Approximately 5-6,000 cpm of [^3 H] GMP are incorporated into acid-precipitable material. The RT reaction is concentration-and time-dependent.

Cc1[nH]c(=O)c(NCc2nc3c(C)ccc(C)c3o2)cc1C(C)O (stereo not shown) [compound (I), 3-[(4,7-Dimethylbenzoxazol-2-yl)-methylamino]-5-(1-hydroxyethyl)-6-methyl-2(1H)-pyridinone] gave an IC50 of ~0.43 µM.
